Like-named read-outs stand apart in the source and are kept apart here.
Assays:
Test in all cases: Anti-proliferative activity, cell-titre luminescent viability assay
Assay type in all cases: cell-based
DU145 = conditions: Homo sapiens, read-out: IC50 Prostate DU145
Method: (§1) The ability of compounds 3501-3540 and 3542-3545 to inhibit the proliferation of cancer cells representative of neuroblastoma, melanoma, prostate cancer, colorectal cancer, non-small cell lung carcinoma, and triple negative breast cancer was assessed. Briefly, a pre-determined number of cells as calculated from cell growth assays for each of the cell lines employed were seeded into their respective culture medium (using ATCC culture parameters—http://www.atcc.org) and cultured for 24 hours at 37° C. and 5% CO2 in 96-well culture plates. Once attached, each cell line was then exposed to increasing concentrations of each respective analogue (0.03, 0.3, 3 and 30 μM for compounds in Table 1; 0.1, 0.3, 1, 3, 10 and 30 μM for compounds in Table 2), cultured for a further 72 hours and exposed to cell-titre luminescent reagent (100 μL/well) for a further 30 min) to assess for cell viability. Luminescence was captured using an EnVision multilabel reader and the data for each analogue concentration was normalized, as a percentage, to the no treatment control. For compounds 3501, 3503, 3505-08, 3512-18, 3520, 3522-24 and 3531-36, semi-log plots of Percent of Control versus concentration were prepared and IC50 determined using linear regression analysis. For compounds 3502, 3504, 3509-11, 3519, 3521, 3525-30, 3537-40 and 3542-45, cell viability was normalized to control (vehicle alone) and dose-response curves, and half maximal effective concentration (EC50) values were determined using Graph Pad Prism 6 (nonlinear regression sigmoidal dose-response variable slope).

SK-N-SH = conditions: Homo sapiens, SK-N-SH, read-out: IC50 Neuroblastoma SK-N-SH
Method: as §1

CaCo2 = conditions: Homo sapiens, read-out: IC50 Colorectal CaCo2
Method: as §1

A549 = conditions: Homo sapiens, read-out: IC50 Lung (NSLC) A549
Method: as §1

SK-Mel-28 = conditions: Homo sapiens, SK-MEL-28, 72 hours, read-out: IC50 Melanoma SK-Mel-28
Method: as §1

MDA-MB-231 = conditions: Homo sapiens, read-out: IC50 Breast MDA-MB-231
Method: as §1

PC3 = conditions: Homo sapiens, read-out: IC50 Prostate PC3
Method: as §1

[1] = DU-145, 72 h, 0.1, 0.3, 1, 3, 10 and 30 μM, nonlinear regression sigmoidal dose-response (EC50)
[2] = 72 h, 0.1, 0.3, 1, 3, 10 and 30 μM, nonlinear regression sigmoidal dose-response (EC50)
[3] = Caco-2, 72 h, 0.1, 0.3, 1, 3, 10 and 30 μM, nonlinear regression sigmoidal dose-response (EC50)
[4] = A549, 72 h, 0.1, 0.3, 1, 3, 10 and 30 μM, nonlinear regression sigmoidal dose-response (EC50)
[5] = 0.1, 0.3, 1, 3, 10 and 30 μM, nonlinear regression sigmoidal dose-response (EC50)
[6] = MDA-MB-231, 72 h, 0.1, 0.3, 1, 3, 10 and 30 μM, nonlinear regression sigmoidal dose-response (EC50)
[7] = PC-3, 72 h, 0.1, 0.3, 1, 3, 10 and 30 μM, nonlinear regression sigmoidal dose-response (EC50)
[8] = DU-145, 72 h, 0.03, 0.3, 3 and 30 μM, linear regression of semi-log plots
[9] = 72 h, 0.03, 0.3, 3 and 30 μM, linear regression of semi-log plots
[10] = Caco-2, 72 h, 0.03, 0.3, 3 and 30 μM, linear regression of semi-log plots
[11] = A549, 72 h, 0.03, 0.3, 3 and 30 μM, linear regression of semi-log plots
[12] = 0.03, 0.3, 3 and 30 μM, linear regression of semi-log plots
[13] = MDA-MB-231, 72 h, 0.03, 0.3, 3 and 30 μM, linear regression of semi-log plots
[14] = PC-3, 72 h, 0.03, 0.3, 3 and 30 μM, linear regression of semi-log plots

SMILES	IC50 (DU145; [1]) [nM]	IC50 (SK-N-SH; [2]) [nM]	IC50 (CaCo2; [3]) [nM]	IC50 (A549; [4]) [nM]	IC50 (SK-Mel-28; [5]) [nM]	IC50 (MDA-MB-231; [6]) [nM]	IC50 (PC3; [7]) [nM]	IC50 (DU145; [8]) [nM]	IC50 (SK-N-SH; [9]) [nM]	IC50 (CaCo2; [10]) [nM]	IC50 (A549; [11]) [nM]	IC50 (SK-Mel-28; [12]) [nM]	IC50 (MDA-MB-231; [13]) [nM]	IC50 (PC3; [14]) [nM]
Cc1c(C)n(CCCN2CCN(C)CC2)c2ccc(Oc3ccc(C(=O)N4CCN(CCc5ccccc5)CC4)cc3)cc12 [Compound 3530]	4500	1600	4300	2400	3900	2100	4800							
Cc1c(C)n(CCCN2CCN(C)CC2)c2ccc(Cc3cccc(C(=O)N4CCN(CCc5ccc6c(c5)OCO6)CC4)c3)cc12 [Compound 3503, (4-(2-(benzo[d][1,3]dioxol-5-yl)ethyl)piperazin-1-yl)(3-((2,3-dimethyl-1-(3-(4-methylpiperazin-1-yl)propyl)-1H-indol-5-yl)methyl)phenyl)methanone]								2100	2100	3400	1400	1000	1000	2400
COc1ccc(CCN2CCN(C(=O)c3cccc(Nc4ccc5c(c4)c(C)c(C)n5CCCN4CCN(C)CC4)c3)CC2)cc1 [Compound 3514, (3-((2,3-dimethyl-1-(3-(4-methylpiperazin-1-yl)propyl)-1H-indol-5-yl)amino)phenyl)(4-(4-methoxyphenethyl)piperazin-1-yl)methanone]								3800	1300	3100	1400	1300	1300	3500
Cc1c(C)n(CCCN2CCN(C)CC2)c2ccc(Nc3cccc(C(=O)N4CCN(CCc5ccc(F)cc5)CC4)c3)cc12 [Compound 3513, (3-((2,3-dimethyl-1-(3-(4-methylpiperazin-1-yl)propyl)-1H-indol-5-yl)amino)phenyl)(4-(4-fluorophenethyl)piperazin-1-yl)methanone]								3800	3300	3100	3300	3400	3600	4000
Cc1c(C)n(CCCN2CCN(C)CC2)c2ccc(Cc3ccc(C(=O)N4CCN(CCc5ccccc5)CC4)cc3)cc12 [Compound 3524, (4-((2,3-dimethyl-1-(3-(4-methylpiperazin-1-yl)propyl)-1H-indol-5-yl)methyl)phenyl)(4-phenethylpiperazin-1-yl)methanone]								1800	1400	1700	900	1100	1100	900
Cc1c(C)n(CCCN2CCN(C)CC2)c2ccc(Cc3ccc(C(=O)N4CCN(CCc5cccc6ccccc56)CC4)cc3)cc12 [Compound 3544, (4-((2,3-dimethyl-1-(3-(4-methylpiperazin-1-yl)propyl)-1H-indol-5-yl)methyl)phenyl)(4-(2-(naphthalen-1-yl)ethyl)piperazin-1-yl)methanone]	9000	7000	13500	5700	7200	8200	8100							
Cc1c(C)n(CCCN2CCN(C)CC2)c2ccc(Cc3cccc(C(=O)N4CCN(CCc5ccccc5)CC4)c3)cc12 [Compound 3506, (3-((2,3-dimethyl-1-(3-(4-methylpiperazin-1-yl)propyl)-1H-indol-5-yl)methyl)phenyl)(4-phenethylpiperazin-1-yl)methanone]								3200	3700	2700	3000	1300	1900	2100
